Marks after values point to notes of the source that are not given here.
Columns and labels:
Septoria tritici = assay: Test G: wheat leaf blotch, preventive spray on wheat seedlings, visual disease rating; details: wheat leaf blotch
Septoria nodorum = assay: Test F: Septoria glume blotch, preventive spray on wheat seedlings, visual disease rating
Botrytis cinerea = assay: Test B: tomato Botrytis, preventive spray on tomato seedlings, visual disease rating; details: tomato Botrytis
Description: (§1) General protocol for preparing test suspensions for Tests A-J: the test compounds were first dissolved in acetone in an amount equal to 3% of the final volume and then suspended at the desired concentration (in ppm) in acetone and purified water (50/50 mix by volume) containing 250 ppm of the surfactant Trem® 014 (polyhydric alcohol esters). The resulting test suspensions were then used in Tests A-J. Spraying a 200 ppm test suspension to the point of run-off on the test plants was the equivalent of a rate of 500 g/ha. Unless otherwise indicated, the rating values indicate a 200 ppm test suspension was used. (An asterisk “*” next to the rating value indicates a 40 ppm test suspension was used.)
The test suspension was sprayed to the point of run-off on tomato seedlings. The following day the seedlings were inoculated with a spore suspension of Botrytis cinerea (the causal agent of tomato Botrytis) and incubated in saturated atmosphere at 20° C. for 48 h, and then moved to a growth chamber at 24° C. for 3 additional days, after which time visual disease ratings were made.

[1] = system: Erysiphe graminis f sp. tritici; assay: Test J: wheat powdery mildew, preventive spray on wheat seedlings, visual disease rating; details: wheat powdery mildew
Description: as §1
The test suspension was sprayed to the point of run-off on wheat seedlings. The following day the seedlings were inoculated with a spore dust of Erysiphe graminis f sp. tritici, (the causal agent of wheat powdery mildew) and incubated in a growth chamber at 20° C. for 8 days, after which time visual disease ratings were made.

[2] = system: Puccinia recondita f. sp. tritici; assay: Test I: wheat leaf rust, preventive spray on wheat seedlings, visual disease rating; details: wheat leaf rust
Alternaria solani = assay: Test C: tomato early blight, preventive spray on tomato seedlings, visual disease rating; details: tomato early blight
[3] = system: Puccinia recondita f. sp. tritici; assay: Test H: wheat leaf rust, curative spray on inoculated wheat seedlings, visual disease rating; details: wheat leaf rust
[4] = preventive spray, 100 = 100% disease control, 0 = no control
[5] = Septoria glume blotch on wheat, preventive spray, 100 = 100% disease control, 0 = no control
[6] = curative spray, 100 = 100% disease control, 0 = no control
[7] = preventive spray, rating marked with asterisk (different test condition, key not given)
[8] = 100 = 100% disease control, 0 = no control relative to controls
[9] = Septoria glume blotch, 100 = 100% disease control, 0 = no control relative to controls
[10] = preventive, 100 = 100% disease control, 0 = no control relative to controls
[11] = curative, 100 = 100% disease control, 0 = no control relative to controls
[12] = sprayed the day before inoculation, 100 = 100% disease control, 0 = no disease control relative to controls
[13] = 100 = 100% disease control, 0 = no disease control relative to controls

SMILES | Test G rating (% disease control) (Septoria tritici; [4]) [%] | Test F rating (% disease control) (Septoria nodorum; [5]) [%] | Test B rating (% disease control) (Botrytis cinerea; [4]) [%] | Test J rating (% disease control) [1, 4] [%] | Test I rating (% disease control) [2, 4] [%] | Test C rating (% disease control) (Alternaria solani; [4]) [%] | Test H rating (% disease control) [3, 6] [%] | Test G rating (% disease control) (Septoria tritici; [8]) [%] | Test F rating (% disease control) (Septoria nodorum; [9]) [%] | Test B rating (% disease control) (Botrytis cinerea; [8]) [%] | Test J rating (% disease control) [1, 8] [%] | Test I rating (% disease control) [2, 10] [%] | Test C rating (% disease control) (Alternaria solani; [8]) [%] | Test H rating (% disease control) [3, 11] [%] | also measured
Cc1nn(C)c(Oc2ncc(Cl)cc2Cl)c1-c1c(F)cc(F)cc1F [compound 64] | 100 | 0 | 97 | 98 | 95 | 80 | 0 | – | – | – | – | – | – | – | –
COc1cc(F)c(-c2c(C)nn(C)c2Oc2ccc(Cl)cn2)c(F)c1 [compound 47] | – | – | – | – | – | – | – | – | – | – | – | – | – | – | Test G rating (% disease control), value marked * (Septoria tritici; [7]): 99* %; Test F rating (% disease control), value marked * (Septoria nodorum; Septoria glume blotch, preventive spray, rating marked with asterisk (different test condition, key not given)): 0* %; Test B rating (% disease control), value marked * (Botrytis cinerea; [7]): 100* %; Test J rating (% disease control), value marked * [1, 7]: 99* %; Test I rating (% disease control), value marked * [2, 7]: 96* %; Test C rating (% disease control), value marked * (Alternaria solani; [7]): 87* %; Test H rating (% disease control), value marked * ([3]; curative spray, rating marked with asterisk (different test condition, key not given)): 37* %
COc1ccc(F)c(Nc2c(-c3ccc(F)cc3F)c(C)nn2C)c1 [compound 244] | – | – | – | – | – | – | – | 91 | 0 | 82 | 96 | 0 | 0 | 0 | –
Cc1nn(C)c(Oc2ccc(C#N)cc2Cl)c1-c1c(F)cc(F)cc1F [compound 98] | 100 | 69 | 100 | 99 | 99 | 17 | 26 | – | – | – | – | – | – | – | –
CCn1nc(C)c(-c2c(F)cccc2F)c1Nc1cc(OC)cc(OC)c1 [compound 63] | 0 | 0 | 0 | 0 | 0 | 0 | 0 | – | – | – | – | – | – | – | –
COc1cccc(Oc2c(-c3c(F)cc(F)cc3F)c(C)nn2C)c1 [compound 213] | – | – | – | – | – | – | – | 85 | 0 | 97 | 100 | 96 | 30 | 94 | –
Cc1nn(C)c(Nc2ncc(F)cc2F)c1-c1c(F)cc(F)cc1F [compound 109] | 100 | 97 | 100 | 100 | 100 | 99 | 99 | – | – | – | – | – | – | – | –
COc1cc(F)c(Nc2c(-c3c(F)cccc3C(F)(F)F)c(C)nn2C)c(F)c1 [compound 263] | – | – | – | – | – | – | – | 100 | 0 | 100 | 100 | 98 | 98 | 0 | –
COc1ccc(Cl)c(Nc2c(-c3c(F)cccc3F)c(C)nn2C)c1 [compound 215] | – | – | – | – | – | – | – | 98 | 0 | 89 | 99 | 94 | 0 | 0 | –
COc1ccc(Nc2c(-c3c(F)cc(C#N)cc3F)c(C)nn2C)cc1 [compound 126] | 100 | 60 | 99 | 0 | 94 | 96 | 0 | – | – | – | – | – | – | – | –
Cc1ccc(-c2c(C)nn(C)c2Nc2c(F)cc(F)cc2F)cc1 [compound 79] | 99 | 0 | 99 | 0 | 55 | 0 | 0 | – | – | – | – | – | – | – | –
Cc1nn(C)c(Nc2ccc(F)c(C#N)c2)c1-c1ccc(F)cc1Cl [compound 234] | – | – | – | – | – | – | – | 99 | 0 | 99 | 84 | 92 | 0 | 0 | –
COc1ccc(Cl)c(Nc2c(-c3ccc(F)cc3F)c(C)nn2C)c1 [compound 227] | – | – | – | – | – | – | – | 99 | 0 | 87 | 98 | 74 | 0 | 0 | –
COc1ccc(-c2c(C)nn(C)c2Oc2ccc(C#N)cc2F)c(Cl)c1 [compound 310] | – | – | – | – | – | – | – | – | – | – | – | – | – | – | Test G disease control rating (Septoria tritici; [12]): 100%; Test F disease control rating (Septoria nodorum; Septoria glume blotch on wheat, 100 = 100% disease control, 0 = no disease control relative to controls): 99%; Test B disease control rating (Botrytis cinerea; [13]): 100%; Test J disease control rating [1, 12]: 96%; Test I disease control rating [2, 12]: 99%; Test C disease control rating (Alternaria solani; [13]): 99%; Test H disease control rating ([3]; sprayed after inoculation, 100 = 100% disease control, 0 = no disease control relative to controls): 0%
Cc1nn(C)c(Oc2ccc(Cl)cc2)c1-c1c(F)cc(F)cc1F [compound 27] | 95 | 0 | 99 | 87 | 25 | 88 | 0 | – | – | – | – | – | – | – | –
Cn1nc(C2CC2)c(-c2ccc(F)cc2Cl)c1Nc1ccc(F)cc1F [compound 108] | 98 | 0 | 97 | 97 | 16 | 0 | 0 | – | – | – | – | – | – | – | –
Cc1nn(C)c(Oc2ccc(Cl)c(C#N)c2)c1-c1c(F)cc(F)cc1F [compound 224] | – | – | – | – | – | – | – | 100 | 0 | 99 | 100 | 91 | 51 | 17 | –
Cc1nn(C)c(Nc2c(F)cc(F)cc2F)c1-c1c(F)cccc1Cl [compound 191] | – | – | – | – | – | – | – | 100 | 0 | 98 | 99 | 97 | 100 | 0 | –
Cc1nn(C)c(Oc2c(F)cc(C#N)cc2F)c1-c1ccc(Cl)nc1 [compound 86] | 48 | 0 | 0 | 0 | 0 | 0 | 0 | – | – | – | – | – | – | – | –
COc1ccc(Nc2c(-c3ccc(F)cc3F)c(C)nn2C)c(Cl)c1 [compound 242] | – | – | – | – | – | – | – | 100 | 0 | 99 | 100 | 91 | 37 | 0 | –

Reference: patent publication US10448639B2, “Fungicidal pyrazoles” (FMC CORPORATION, priority 2009, dated 2019)
